Converted amounts (≈) assume the structure as drawn. Like-named read-outs stand apart in the source and are kept apart here. Ends that are not written are not given here. Peptide text beside a SMILES is read from it. * marks the point of attachment. Acm = CC(=O)NC*
Experiments:
Format in all cases: cell-based
[1] = system: Escherichia coli ATCC 25922
Summary of the method: (§1)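 Inoculum of 2×10^6 CFU/ml, mid-logarithmic growth phase, in 1% Bacto Peptone water; standard microdilution, performed in triplicate.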

[2] = system: Staphylococcus aureus ATCC 25923
Summary of the method: as §1

[3] = system: human red blood cells; experiment: Hemolytic assay; conditions: for % Hemolysis 10 μg/ml / % Hemolysis 100 μg/ml: red cells of human
Description: The hemolytic activities of the peptides were determined using fresh human red blood cells. 8 ml blood was taken from a healthy person. 4 ml blood was transferred to a polycarbonate tube containing heparin to a final concentration of 10 U/ml, and the remaining 4 ml blood was transferred to a glass tube containing EDTA with final concentration of 15% EDTA. The erythrocytes were isolated from heparin-treated blood by centrifugation in 1500 rpm for 10 min and washed three times with phosphate-buffered saline (PBS) to remove plasma and buffy coat. The cell pellet was resuspended in PBS to make the final volume of 4 ml. The peptide was diluted to a concentration of 2 mg/ml and 0.1 mg/ml. The peptide was further diluted to the concentrations as stated in Table 15. For each tube PBS was added first, then RBCs and peptide solutions. The hematocrit in the blood treated with EDTA was determined after 30 min with Sysmex K-1000, and the resuspended RBCs were diluted into 10% hematocrit. RBCs in PBS (1%) with and without peptides (Table 15) were incubated in a shaker at […] for 1 hour and then centrifuged at 4000 rpm for 5 min. The supernatant were carefully transferred to new polycarbonate tubes and the absorbance of the supernatant was measured at 540 nm. Baseline hemolysis was hemoglobin released in the presence of PBS, and 100% hemolysis was hemoglobin released in the presence of 0.1% Triton X-100.

Row | Molecule | MIC E. coli ([1]; ATCC 25922) | MIC S. aureus ([2]; ATCC 25923) | % Hemolysis 10 μg/ml [3] | % Hemolysis 100 μg/ml [3] | also measured
1 | CSCC[C@H](NC(=O)[C@H](C)NC(=O)[C@H](Cc1c[nH]c2ccccc12)NC(=O)[C@H](CCC(N)=O)NC(=O)[C@H](Cc1c[nH]c2ccccc12)NC(=O)[C@H](CCCNC(=N)N)NC(=O)[C@H](CC(C)C)NC(=O)[C@H](CSCNC(C)=O)NC(=O)[C@H](CCCCN)NC(=O)[C@H](C)N)C(=O)N[C@@H](CCCNC(=N)N)C(=O)N[C@@H](CCCCN)C(=O)N[C@H](C(=O)NCC(=O)NCC(=O)O)C(C)C [LFM A1, 9 W8] (H-AKC(Acm)LRWQWAMRKVGG-OH; N-terminus assumed) | 200 µg/mL (≈ 107 µM) | >1000 µg/mL | 2.8% | 3.7% | 
2 | CSCC[C@H](NC(=O)[C@H](C)NC(=O)[C@H](Cc1c[nH]c2ccccc12)NC(=O)[C@H](CCC(N)=O)NC(=O)[C@H](Cc1c[nH]c2ccccc12)NC(=O)[C@H](CCCNC(=N)N)NC(=O)[C@H](CC(C)C)NC(=O)[C@H](CSCNC(C)=O)NC(=O)[C@H](CCCCN)NC(=O)[C@@H](N)CCC(=O)O)C(=O)N[C@@H](CCCNC(=N)N)C(=O)N[C@@H](CCCCN)C(=O)N[C@H](C(=O)NCC(=O)NCC(=O)O)C(C)C [LFM A9 W8] (H-EKC(Acm)LRWQWAMRKVGG-OH; N-terminus assumed) | >1000 µg/mL | >1000 µg/mL | 2.5% | 3.5% | 
3 | CSCC[C@H](NC(=O)[C@H](CCCNC(=N)N)NC(=O)[C@H](Cc1c[nH]c2ccccc12)NC(=O)[C@H](CCC(N)=O)NC(=O)[C@H](Cc1c[nH]c2ccccc12)NC(=O)[C@H](CCCNC(=N)N)NC(=O)[C@H](CC(C)C)NC(=O)[C@H](CSCNC(C)=O)NC(=O)[C@H](CCCCN)NC(=O)[C@@H](N)CCCNC(=N)N)C(=O)N[C@@H](CCCNC(=N)N)C(=O)N[C@@H](CCCCN)C(=O)N[C@H](C(=O)NCC(=O)NCC(=O)O)C(C)C [LFM R1, 9 W8] (H-RKC(Acm)LRWQWRMRKVGG-OH; N-terminus assumed) | 25 µg/mL (≈ 12.3 µM) | 75 µg/mL (≈ 36.9 µM) | 3.69% |  | 
4 | CSCC[C@H](NC(=O)[C@H](CCC(=O)O)NC(=O)[C@H](Cc1c[nH]c2ccccc12)NC(=O)[C@H](CCC(N)=O)NC(=O)[C@H](Cc1c[nH]c2ccccc12)NC(=O)[C@H](CCCNC(=N)N)NC(=O)[C@H](CC(C)C)NC(=O)[C@H](CSCNC(C)=O)NC(=O)[C@H](CCCCN)NC(=O)[C@@H](N)CCCNC(=N)N)C(=O)N[C@@H](CCCNC(=N)N)C(=O)N[C@@H](CCCCN)C(=O)N[C@H](C(=O)NCC(=O)NCC(=O)O)C(C)C [LFM R1, W8] (H-RKC(Acm)LRWQWEMRKVGG-OH; N-terminus assumed) | 75 µg/mL (≈ 37.4 µM) | 500 µg/mL (≈ 249 µM) | 2.8% | 3.48% | 
5 | CSCC[C@H](NC(=O)[C@H](CCCNC(=N)N)NC(=O)[C@H](Cc1c[nH]c2ccccc12)NC(=O)[C@H](CCC(N)=O)NC(=O)[C@H](Cc1c[nH]c2ccccc12)NC(=O)[C@H](CCCNC(=N)N)NC(=O)[C@H](CC(C)C)NC(=O)[C@H](CSCNC(C)=O)NC(=O)[C@H](CCCCN)NC(=O)[C@@H](N)CCC(=O)O)C(=O)N[C@@H](CCCNC(=N)N)C(=O)N[C@@H](CCCCN)C(=O)N[C@H](C(=O)NCC(=O)NCC(=O)O)C(C)C [LFM R9 W8] (H-EKC(Acm)LRWQWRMRKVGG-OH; N-terminus assumed) | 500 µg/mL (≈ 249 µM) | >1000 µg/mL | 3.1% | 4.59% | 
6 | CSCC[C@H](NC(=O)[C@H](CCC(=O)O)NC(=O)[C@H](Cc1c[nH]c2ccccc12)NC(=O)[C@H](CCC(N)=O)NC(=O)[C@H](Cc1c[nH]c2ccccc12)NC(=O)[C@H](CCCNC(=N)N)NC(=O)[C@H](CC(C)C)NC(=O)[C@H](CSCNC(C)=O)NC(=O)[C@H](CCCCN)NC(=O)[C@@H](N)CCC(=O)O)C(=O)N[C@@H](CCCNC(=N)N)C(=O)N[C@@H](CCCCN)C(=O)N[C@H](C(=O)NCC(=O)NCC(=O)O)C(C)C [LFM W8, H2N-Glu-Lys-Cys-Leu-Arg-Trp-Gln-Trp-Glu-Met-Arg-Lys-Val-Gly-Gly-COOH] (H-EKC(Acm)LRWQWEMRKVGG-OH) | >1000 µg/mL | 1000 µg/mL (≈ 506 µM) | 2.6% | 4.8% | 
7 | CSCC[C@H](NC(=O)[C@H](CCC(=O)O)NC(=O)[C@H](CC(N)=O)NC(=O)[C@H](CCC(N)=O)NC(=O)[C@H](Cc1c[nH]c2ccccc12)NC(=O)[C@H](CCCNC(=N)N)NC(=O)[C@H](CC(C)C)NC(=O)[C@H](CSCNC(C)=O)NC(=O)[C@H](CCCCN)NC(=O)[C@@H](N)CCC(=O)O)C(=O)N[C@@H](CCCNC(=N)N)C(=O)N[C@@H](CCCCN)C(=O)N[C@H](C(=O)NCC(=O)NCC(=O)O)C(C)C [LFM, EKCLRWQNEMRKVGG] (H-EKC(Acm)LRWQNEMRKVGG-OH; N-terminus assumed) | >1000 µg/mL | >1000 µg/mL | 2.3% | 3.1% | 
8 | CSCC[C@H](NC(=O)[C@H](CCCCN)NC(=O)[C@H](CCCCN)NC(=O)[C@H](CC(C)C)NC(=O)CNC(=O)[C@H](C)N)C(=O)N[C@@H](CCCNC(=N)N)C(=O)N[C@@H](Cc1c[nH]c2ccccc12)C(=O)N[C@@H](CCC(N)=O)C(=O)N[C@@H](Cc1c[nH]c2ccccc12)C(=O)N[C@@H](CCCNC(=N)N)C(=O)N[C@@H](CCCNC(=N)N)C(=O)N[C@@H](CSCNC(C)=O)C(=O)N[C@@H](CCCCN)C(=O)N[C@@H](Cc1ccccc1)C(=O)O [Retro LFB 17-31] |  |  | 2.01% |  | MIC E. coli ([1]; Table 3): 80 µg/mL (≈ 38.7 µM); MIC S. aureus ([2]; Table 3, unit assumed): 200 µg/mL (≈ 96.8 µM)
9 | CSCC[C@@H](NC(=O)[C@@H](CCCCN)NC(=O)[C@@H](CCCCN)NC(=O)[C@@H](CC(C)C)NC(=O)CNC(=O)[C@@H](C)N)C(=O)N[C@H](CCCNC(=N)N)C(=O)N[C@H](Cc1c[nH]c2ccccc12)C(=O)N[C@H](CCC(N)=O)C(=O)N[C@H](Cc1c[nH]c2ccccc12)C(=O)N[C@H](CCCNC(=N)N)C(=O)N[C@H](CCCNC(=N)N)C(=O)N[C@H](CSCNC(C)=O)C(=O)N[C@H](CCCCN)C(=O)N[C@H](Cc1ccccc1)C(=O)O [Retro-Enantio LFB 17-31] |  |  | 3.31% |  | MIC E. coli ([1]; Table 3): 6.25 µg/mL (≈ 3.03 µM); MIC S. aureus ([2]; Table 3, unit assumed): 80 µg/mL (≈ 38.7 µM)
10 | H-FKWRRWQWRMKKLWA-OH [LFB W3, 14, H2N-Phe-Lys-Trp-Arg-Arg-Trp-Gln-Trp-Arg-Met-Lys-Lys-Leu-Trp-Ala-COOH] |  |  | 3.1% | 5.1% | MIC E. coli ([1]; Table 6): 10 µg/mL; MIC E. coli ([1]; Table 12): 10 µg/mL; MIC S. aureus ([2]; Table 6, unit assumed): 10 µg/mL; MIC S. aureus ([2]; Table 12): 10 µg/mL; EC 50 [3]: >1000 µg/mL; EC50 [3]: > 453 µM
11 | RRWQWRMKKLG-OH [LFB 20-30] | 40 µg/mL | >100 µg/mL | 2.16% | 3.1% | 
12 | YRAWRWAWRWR-NH2 [LFB 17-27 A3, 7 R2, 11 W4, 10 Y1 NH2, TYR-ARG-ALA-TRP-ARG-TRP-ALA-TRP-ARG-TRP-ARG-CONH2] |  |  |  |  | MIC E. coli ([1]; Table 14, peptides with a proportion of D amino acids): 10 µg/mL; MIC S. aureus ([2]; Table 14): 2.5 µg/mL; EC50 [3]: 400 ± 200 µM; EC 50 ([3]; Table 13, toxicity (hemolysis)): 700 ± 300 µg/mL
